Results: patent publication US7312223B2, “Metabolite of xanthine Phosphodiesterase 5 inhibitor and derivatives thereof useful for treatment of erectile dysfunction” (Schering Corporation, priority 2003, dated 2007)
Entries after “also recorded” stand apart in the source; their conditions may differ.

Assays:
[1] = target: T1, PDE 5 (Homo sapiens, UniProt O76074); settings: disclosed in U.S. Ser. No. 09/940,760; cited from earlier work
[2] = Incubation of Compound A with Control Insect Microsomes and NADPH-generating system; type: in vitro ADME; settings: Compound A 50 μM, 120 min, Control Insect Microsomes, FIG. 3
Description: Incubation mixtures contained cytochrome P450 (1 nmol/mL for human liver microsomes or 0.2 nmol/mL for CYP3A4), β-NADP^+ (1 mM), glucose-6-phosphate (5 mM), glucose-6-phosphate dehydrogenase (1.5 units/mL) and 3 mM magnesium chloride in 0.5 mL of 50 mM potassium phosphate buffer (pH 7.4). Prior to the addition of drug, incubation mixtures were pre-incubated for 3 min at about 37° C. […] Boiled human liver microsomes and incubations without NADPH served as negative control. A discussion of HPLC is provided in “HPLC in Pharmaceutical Analysis,” vol. I, G. Szepesi (1990). A discussion of mass spectrometry is provided in “Remington: The Science and Practice of Pharmacy,” 20th Ed., D. Limmer, ed., pp. 636-639 (2000).
(§1) Radiometric profiles of metabolites following 120 min incubation of Compound A (50 μM) with CYP3A4, Human Liver Microsomes, and Insect Microsomes, all with a NADPH-generating system, are shown in FIGS. 1, 2, and 3, respectively. In these figures, the y-axis reflects radioactivity of the eluted species and has units of counts per minute, while the x-axis reflects time of elution and has units of minutes. Each peak represents one or more compounds, and each of the more significant peaks is labeled with the mass-to-charge ratio value (m/z) of that compound. Mass-to-charge ratios are measured by mass spectrometry.

[3] = Incubation of Compound A with pooled human liver microsomes and NADPH-generating system; type: in vitro ADME
Description: (§2) Compound C was prepared via a biotransformation from Compound A. In vitro incubations of Compound A (1, 5 and 50 μM) were performed with pooled human liver microsomes and CYP3A4 SUPERSOMES®. This radiolabel allowed tracking of all the metabolites of Compound A. For this procedure, Compound A was synthesized by inserting a ^14C in the 4 position as indicated in the ring member numbering scheme below.
(§3) Incubation mixtures contained cytochrome P450 (1 nmol/mL for human liver microsomes or 0.2 nmol/mL for CYP3A4), β-NADP^+ (1 mM), glucose-6-phosphate (5 mM), glucose-6-phosphate dehydrogenase (1.5 units/mL) and 3 mM magnesium chloride in 0.5 mL of 50 mM potassium phosphate buffer (pH 7.4). Prior to the addition of drug, incubation mixtures were pre-incubated for 3 min at about 37° C. […] Boiled human liver microsomes and incubations without NADPH served as negative control. […]
as §1, with “Each peak represents one or more compounds, and each of the more significant peaks is labeled with the mass-to-charge ratio value (m/z) of that compound.” left out

[4] = target: T2, CYP3A4 (Homo sapiens, UniProt P08684); test: Incubation of Compound A with CYP3A4 SUPERSOMES and NADPH-generating system; type: in vitro ADME
T2 construct: purchased; host or cells: An insect cell host is inferred from the 'Insect Microsomes' control
T2 sequence (P08684 whole entry): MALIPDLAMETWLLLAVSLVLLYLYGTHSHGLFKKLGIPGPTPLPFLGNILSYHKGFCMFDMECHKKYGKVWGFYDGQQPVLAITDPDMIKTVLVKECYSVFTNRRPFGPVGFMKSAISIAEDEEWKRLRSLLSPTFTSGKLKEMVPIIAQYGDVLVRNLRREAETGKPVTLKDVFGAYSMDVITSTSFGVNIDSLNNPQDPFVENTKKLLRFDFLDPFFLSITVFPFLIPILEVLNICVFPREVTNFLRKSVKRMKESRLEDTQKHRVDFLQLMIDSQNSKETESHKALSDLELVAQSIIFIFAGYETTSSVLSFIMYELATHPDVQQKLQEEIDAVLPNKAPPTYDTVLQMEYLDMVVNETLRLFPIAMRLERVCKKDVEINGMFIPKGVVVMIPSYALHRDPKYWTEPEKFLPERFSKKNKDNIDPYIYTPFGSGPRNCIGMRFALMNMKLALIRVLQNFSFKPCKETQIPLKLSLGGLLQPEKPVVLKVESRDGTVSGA
Description: as §2, §3
as §1, with “Each peak represents one or more compounds, and each of the more significant peaks is labeled with the mass-to-charge ratio value (m/z) of that compound.” left out

[5] = Circulating metabolites after single oral administration of Compound A to humans; type: in vivo; settings: single administration of Compound A 100 mg PO
[6] = target: T1, PDE 5; test: PDE 5 inhibitory activity; type: biochemical; settings: target not stated at the place; PDE 5 from context

In the case of `CCn1c(=O)c2c(nc(N[C@@H]3CCC[C@H]3O)n2Cc2ccc(OC)c(Br)c2)n(CCO)c1=O` [Compound A], the “PDE 5 inhibitory activity” value [1] is given as “having PDE 5 inhibitory activity”, the metabolite formation [2] is given as “no major metabolite formation was observed” and the extent of metabolism ([3]; 1, 5 and 50 μM, human liver microsomes 1 nmol/mL, NADPH-generating system) is given as “metabolized extensively”. The “activity with respect to the formation of Compound C” value ([4]; 50 μM Compound A, cDNA-expressed CYP3A4) was “exhibited the greatest activity”.
With `CCn1c(=O)c2c(nc(N)n2Cc2ccc(OC)c(Br)c2)n(CCO)c1=O` [Compound C, 8-Amino-7-[(3-Bromo-4-Methoxyphenyl)Methyl]-1-Ethyl-3,7-Dihydro-3-(2-Hydroxyethyl)-1H-Purine-2,6-Dione] the “circulating metabolite in human” value [5] was “one of the major circulating metabolites; also recorded: prominent circulating metabolite”, the “metabolite formed from Compound A (radiometric profile)” value ([3]; Compound A 50 μM, 120 min, Human Liver Microsomes, FIG. 2) was “significant metabolite” and the “metabolite formed from Compound A (radiometric profile)” value ([4]; Compound A 50 μM, 120 min, CYP3A4, FIG. 1) was “significant metabolite”. It also gave an IC50 [6] of 71 nM.
